Results reported in US20210387966A1, “2-AMINO-N-HETEROARYL-NICOTINAMIDES AS NAV1.8 INHIBITORS” (Merck Sharp & Dohme Corp., priority 2018, published 2021).

biological target: T1, human Nav1.8 channels (Homo sapiens, UniProt Q9Y5Y9); assay: Nav1.8 Qube automated patch-clamp assay; format: cell-based; settings: human Nav1.8 stably expressed in HEK 293 cells; whole-cell voltage clamp, room temperature; resting or inactivated state not specified; read-out: IC50 values (nM) for Examples in the Nav1.8 Qube Assay
T1 construct: expressed in transfected cells
Outline: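 Whole-cell patch clamp at room temperature on HEK293 cells stably expressing human Nav1.8. A 1 Hz train of ten 20 ms pulses to 10 mV from −90 mV holding, with −67 mV repolarization, was applied; first- and tenth-pulse peak currents gave resting and inactivated-state IC50s by Hill fitting.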

T1 sequence (Q9Y5Y9 whole entry): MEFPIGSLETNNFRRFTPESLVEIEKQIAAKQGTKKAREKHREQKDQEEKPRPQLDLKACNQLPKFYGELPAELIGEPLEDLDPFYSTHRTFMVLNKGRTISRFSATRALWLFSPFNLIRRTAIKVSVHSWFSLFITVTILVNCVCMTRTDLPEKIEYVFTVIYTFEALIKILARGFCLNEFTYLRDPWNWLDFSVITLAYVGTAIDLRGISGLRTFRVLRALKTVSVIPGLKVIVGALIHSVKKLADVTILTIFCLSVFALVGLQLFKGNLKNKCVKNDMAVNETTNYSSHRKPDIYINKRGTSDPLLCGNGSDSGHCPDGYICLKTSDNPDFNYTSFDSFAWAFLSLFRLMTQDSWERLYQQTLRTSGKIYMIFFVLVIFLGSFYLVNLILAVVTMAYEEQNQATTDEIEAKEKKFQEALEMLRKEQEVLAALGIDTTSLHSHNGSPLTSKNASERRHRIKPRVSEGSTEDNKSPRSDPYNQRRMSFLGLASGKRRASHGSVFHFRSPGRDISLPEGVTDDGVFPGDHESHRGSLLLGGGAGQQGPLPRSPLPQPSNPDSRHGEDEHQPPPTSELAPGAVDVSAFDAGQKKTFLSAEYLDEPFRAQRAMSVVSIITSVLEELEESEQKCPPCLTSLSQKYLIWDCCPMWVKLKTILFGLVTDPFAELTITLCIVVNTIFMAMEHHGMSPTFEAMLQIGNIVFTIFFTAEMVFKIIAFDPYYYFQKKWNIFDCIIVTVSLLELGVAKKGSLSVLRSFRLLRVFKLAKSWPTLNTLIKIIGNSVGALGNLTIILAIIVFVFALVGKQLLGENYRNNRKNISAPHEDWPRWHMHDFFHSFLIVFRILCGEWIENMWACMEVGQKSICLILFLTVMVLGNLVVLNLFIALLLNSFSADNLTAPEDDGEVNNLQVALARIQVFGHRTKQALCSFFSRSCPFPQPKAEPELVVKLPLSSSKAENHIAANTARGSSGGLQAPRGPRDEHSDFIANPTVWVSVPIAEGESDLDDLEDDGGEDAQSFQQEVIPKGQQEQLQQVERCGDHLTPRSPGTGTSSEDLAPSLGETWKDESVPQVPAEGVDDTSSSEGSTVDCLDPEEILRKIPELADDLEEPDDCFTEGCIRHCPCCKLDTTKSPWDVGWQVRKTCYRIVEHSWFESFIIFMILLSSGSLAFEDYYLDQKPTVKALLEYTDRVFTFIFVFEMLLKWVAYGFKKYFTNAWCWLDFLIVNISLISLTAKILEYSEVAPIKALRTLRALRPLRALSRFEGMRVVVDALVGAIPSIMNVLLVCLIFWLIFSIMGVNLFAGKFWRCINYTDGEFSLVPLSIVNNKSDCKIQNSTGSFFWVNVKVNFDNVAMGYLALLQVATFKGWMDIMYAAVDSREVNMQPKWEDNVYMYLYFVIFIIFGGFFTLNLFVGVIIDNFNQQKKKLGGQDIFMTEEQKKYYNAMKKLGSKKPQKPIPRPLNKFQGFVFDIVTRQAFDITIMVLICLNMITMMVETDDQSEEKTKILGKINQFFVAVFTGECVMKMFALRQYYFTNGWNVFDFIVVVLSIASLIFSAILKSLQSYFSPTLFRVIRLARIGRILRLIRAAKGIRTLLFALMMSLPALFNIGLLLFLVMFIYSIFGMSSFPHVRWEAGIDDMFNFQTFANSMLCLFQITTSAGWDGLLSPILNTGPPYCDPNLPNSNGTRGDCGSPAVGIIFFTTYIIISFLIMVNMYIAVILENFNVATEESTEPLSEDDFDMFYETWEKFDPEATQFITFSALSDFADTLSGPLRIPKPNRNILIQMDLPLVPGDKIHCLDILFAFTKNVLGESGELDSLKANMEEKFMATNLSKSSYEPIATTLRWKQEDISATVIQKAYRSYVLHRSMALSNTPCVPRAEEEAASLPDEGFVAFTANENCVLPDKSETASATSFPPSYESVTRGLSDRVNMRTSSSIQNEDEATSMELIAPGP

Row | IC50 [nM] | SMILES
1 | 820 | N#Cc1ccc(NC(=O)c2cc(C(F)(F)F)cnc2N2CCC(F)(F)CC2)cn1 [Example 5, N-(6-cyanopyridin-3-yl)-2-(4,4-difluoropiperidin-1-yl)-5-(trifluoromethyl)nicotinamide]
2 | 220 | NS(=O)(=O)c1cc(NC(=O)c2cc(C(F)(F)F)cnc2N2CCC[C@@H]2C(F)(F)F)ccn1 [Example 127, (R)-N-(2-sulfamoylpyridin-4-yl)-5-(trifluoromethyl)-2-(2-(trifluoromethyl)pyrrolidin-1-yl)nicotinamide]
3 | 696 | NS(=O)(=O)c1cc(NC(=O)c2cc(C(F)(F)F)cnc2N2CCCO[C@@H](C(F)(F)F)C2)ccn1 [Example 105, (R)-N-(2-sulfamoylpyridin-4-yl)-5-(trifluoromethyl)-2-(2-(trifluoromethyl)-1,4-oxazepan-4-yl)nicotinamide]
4 | 1540 | COc1cc(NC(=O)c2cc(C(F)(F)F)cnc2N2CCC3(CC2)CC3)ccn1 [Example 143, N-(2-methoxypyridin-4-yl)-2-(6-azaspiro[2.5]octan-6-yl)-5-(trifluoromethyl)-nicotinamide]
5 | 30 | NS(=O)(=O)c1cc(NC(=O)c2cc(C(F)(F)F)cnc2N2CCOC(C(F)(F)F)CC2)ccn1 (single isomer, unassigned) [Example 119, (S or R)-N-(2-sulfamoylpyridin-4-yl)-5-(trifluoromethyl)-2-(7-(trifluoromethyl)-1,4-oxazepan-4-yl)nicotinamide]
6 | 1900 | NS(=O)(=O)c1cc(NC(=O)c2cc(C(F)(F)F)cnc2N2CC(Oc3ccc(C(F)(F)F)cc3)C2)ccn1 [Example 97, N-(2-sulfamoyl-4-pyridyl)-5-(trifluoromethyl)-2-[3-[4-(trifluoromethyl)phenoxy]azetidin-1-yl]pyridine-3-carboxamide]
7 | 1290 | O=C(Nc1cncc(F)c1)c1cc(C(F)(F)F)cnc1N1CCCCCC1 [Example 186, 2-(azepan-1-yl)-N-(5-fluoropyridin-3-yl)-5-(trifluoromethyl)nicotinamide]
8 | 2830 | NS(=O)(=O)c1cc(NC(=O)c2cc(C(F)(F)F)cnc2N2CCCC(CO)C2)ccn1 (centres unmarked) [Example 7, 2-(3-(hydroxymethyl)piperidin-1-yl)-N-(2-sulfamoylpyridin-4-yl)-5-(trifluoromethyl)nicotinamide]
9 | 1300 | NS(=O)(=O)c1cc(NC(=O)c2cc(C(F)(F)F)cnc2N2CCC(F)(F)CCC2=O)ccn1 [Example 28, 2-(5,5-Difluoro-2-oxoazepan-1-yl)-N-(2-sulfamoylpyridin-4-yl)-5-(trifluoromethyl)nicotinamide]
10 | 1.3 | Cc1nc(N2CCCCCC2)c(C(=O)Nc2ccnc(S(N)(=O)=O)c2)c(C)c1Cl [Example 201, 2-(azepan-1-yl)-5-chloro-4,6-dimethyl-N-(2-sulfamoylpyridin-4-yl)nicotinamide]
11 | 1080 | NS(=O)(=O)c1cc(NC(=O)c2cc(-n3cccn3)cnc2N2CCC(F)(F)CC2)ccn1 [Example 207, 2-(4,4-difluoropiperidin-1-yl)-5-(1H-pyrazol-1-yl)-N-(2-sulfamoylpyridin-4-yl)nicotinamide]
12 | 29 | COc1ccc(C(=O)Nc2ccnc(S(N)(=O)=O)c2)c(N2CCCC(F)(F)CC2)n1 [Example 142, 2-(4,4-difluoroazepan-1-yl)-6-methoxy-N-(2-sulfamoylpyridin-4-yl)nicotinamide]
13 | 2.4 | Cc1nc(C2CCC(F)(F)CC2)c(C(=O)Nc2ccnc(S(N)(=O)=O)c2)c(C)c1Cl [Example 218, 5-chloro-2-(4,4-difluorocyclohexyl)-4,6-dimethyl-N-(2-sulfamoylpyridin-4-yl)nicotinamide]
14 | 4 | CS(=O)(=O)n1cc(NC(=O)c2cc(C(F)(F)F)cnc2N2CCCC(F)(F)CC2)c2cccnc21 [Example 30, 2-(4,4-difluoroazepan-1-yl)-N-[1-(methylsulfonyl)-1H-pyrrolo[2,3-b]pyridin-3-yl]-5-(trifluoromethyl)pyridine-3-carboxamide]
